# In patent US6828315B1, “1-Amino triazoloc4,3-a! quinazoline-5-ones and/or -5-thiones inhibiting phosphodiesterase IV” (Warner-Lambert LLC, priority 1999, dated 2004):
# Assays:
# [1] = target: type 4 phosphodiesterases (PDE4); assay: Inhibition of the phosphodiesterase (PDE4), enzymatic preparation from line U937; assay type: biochemical; conditions: PDE4 from cytosolic preparation of human cell line U937
# Protocol: The capacity of the formula (I) compounds of the invention to inhibit the cyclic nucleotide phosphodiesterases is evaluated by their Cl50 measurement (necessary concentration to inhibit 50% of enzymatic activity).
# The type 4 phosphodiesterases are obtained from a cytosolic preparation extracted from the human origin cellular line U937 according to a method adapted from T. J. Torphy and al., 1992, J.Pharm.Exp. Ther. 263: 1195-1205
# The other classes of phosphodiesterases are obtained after partial purification FPLC on Mono Q column. (anion exchange column) according to a method adapted from Lavan B. E., Lakey T., Houslay M. D. Biochemical Pharmacology, 1989, 38(22), 4123-4136., and from Silver P. J and al., 1988, Eur.J. Pharmacol. 150: 85-94, either, from human origin cellular lines for PDE 1 (monocytar line TPH1) and PDE5 (line MCF7 issued from an adenocarcinoma), or from dog aorta for PDE 3, or for the human PDE3A, from gene cloning in insect cells SF21 in baculovirus, according to a method adapted from Luckow, V. A. and al., 1991 in Recombinant DNA Technology&Applications.,eds. Prokop, Bajpai,R. K.&Ho,C. S., pp97-152. The enzymatic activity measurement of the different PDE classes, and in particular the PDE 4, is performed according to a method adapted from W. J. Thompson and al. 1979, Advances in Cyclic Nucleotide Research, Vol. 10: 69-92, ed. G. Brooker and al. Raven Press, NY.
# For the Cl50 determination, the enzymatic activity is measured in the presence of inhibitor within concentration margins of 0.1 to 100 μM.
# The following table illustrates the PDE4 inhibitory activity from enzymatic preparation obtained from the line U937.
SMILES,IC50 [1],melting point
"N#Cc1ccc(Cn2c(=O)c3cc(Br)ccc3n3c(N4CCCCCC4)nnc23)cc1 [Compound 34, 4-(1-Azepan-1-yl-7-bromo-5-oxo-5H-[1,2,4]triazolo[4,3-a]quinazolin-4-ylmethyl)-benzonitrile]",56 nM,190 °C
"O=c1c2cc(Br)ccc2n2c(N3CCCCCC3)nnc2n1CC=Cc1ccncc1 [Compound 41, 1-Azepan-1-yl-7-bromo-4-(3-pyridin-4-yl-allyl)-4H-[1,2,4]triazolo[4,3-a]quinazolin-5-one]",18 nM,216 °C
"Cc1ccc2c(c1)c(=O)n(Cc1ccc(CC(=O)O)cc1)c1nnc(N3CCCC3)n21 [Compound 96, [4-(7-Methyl-5-oxo-1-pyrrolidin-1-yl-5H-[1,2,4]triazolo[4,3-a]quinazolin-4-ylmethyl)-phenyl]-acetic acid]",58 nM,262 °C
"Cc1ccc2c(c1)c(=O)n(CC=Cc1ccccc1)c1nnc(N3CCCCCC3)n21 [Compound 92, 1-Azepan-1-yl-7-methyl-4-(3-phenyl-allyl)-4H-[1,2,4]triazolo[4,3-a]quinazolin-5-one]",30 nM,195 °C
"CNc1ccc2c(c1)c(=O)n(Cc1ccccc1)c1nnc(N3CCCC3)n21 [Compound 230, 4-Benzyl-7-methylamino-1-pyrrolidin-1-yl-4H-[1,2,4]triazolo[4,3-a]quinazolin-5-one]",2 nM,171 °C
"Cc1ccc(Cn2c(=O)c3cc(Br)ccc3n3c(N(C)C)nnc23)cc1 [Compound 78, 7-Bromo-1-dimethylamino-4-(4-methyl-benzyl)-4H-[1,2,4]triazolo[4,3-a]quinazolin-5-one]",38 nM,223 °C
"Nc1ccc2c(c1)c(=O)n(C/C=C/c1cccnc1)c1nnc(N3CCCC3)n21 [Compound 227, 7-Amino-4-((E)-3-pyridin-3-yl-allyl)-1-pyrrolidin-1-yl-4H-[1,2,4]triazolo[4,3-a]quinazolin-5-one]",28 nM,201 °C
"COc1ccc(C=CCn2c(=O)c3cc(Br)ccc3n3c(N4CCCC4)nnc23)cc1 [Compound 60, 7-Bromo-4-[3-(4-methoxy-phenyl)-allyl]-1-pyrrolidin-1-yl-4H-[1,2,4]triazolo[4,3-a]quinazolin-5-one]",50 nM,171 °C
"CC(=O)Oc1ccc(Cn2c(=O)c3cc(Br)ccc3n3c(N4CCCC4)nnc23)cc1 [Compound 50, Acetic acid 4-(7-bromo-5-oxo-1-pyrrolidin-1-yl-5H-[1,2,4]triazolo[4,3-a]quinazolin-4-ylmethyl)-phenyl ester]",35 nM,195 °C
"CN(C)c1nnc2n(Cc3ccc(CC#N)cc3)c(=O)c3cc(Br)ccc3n12 [Compound 83, [4-(7-Bromo-1-dimethylamino-5-oxo-5H-[1,2,4]triazolo[4,3-a]quinazolin-4-ylmethyl)-phenyl]-acetonitrile]",12 nM,230 °C
"CN(C)c1nnc2n(C/C=C/c3ccccc3)c(=O)c3cc(N)ccc3n12 [Compound 229, 7-Amino-1-dimethylamino-4-((E)-3-phenyl-allyl)-4H-[1,2,4]triazolo[4,3-a]quinazolin-5-one]",80 nM,198 °C
"O=c1c2cc(Br)ccc2n2c(N3CCCCCC3)nnc2n1CC=Cc1ccccc1 [Compound 37, 1-(azepan-1-yl)-7-bromo-4-(3-phenylallyl)-4H-[1,2,4]triazolo[4,3-a]quinazolin-5-one]",15 nM,155 °C
"O=c1c2cc(Br)ccc2n2c(N3CCCC3)nnc2n1Cc1ccc(O)cc1 [Compound 51, 7-Bromo-4-(4-hydroxy-benzyl)-1-pyrrolidin-1-yl-4H-[1,2,4]triazolo[4,3-a]quinazolin-5-one]",27 nM,288 °C
"COc1ccc(Cn2c(=O)c3cc(Br)ccc3n3c(N4CCCC4)nnc23)cc1OC [Compound 52, 7-Bromo-4-(3,4-dimethoxy-benzyl)-1-pyrrolidin-1-yl-4H-[1,2,4]triazolo[4,3-a]quinazolin-5-one]",30 nM,151 °C
"CCNc1ccc2c(c1)c(=O)n(Cc1ccccc1)c1nnc(N3CCCC3)n21 [Compound 233, 4-Benzyl-7-ethylamino-1-pyrrolidin-1-yl-4H-[1,2,4]triazolo[4,3-a]quinazolin-5-one]",180 nM,225 °C
"Nc1ccc2c(c1)c(=O)n(Cc1ccccc1)c1nnc(N3CCCCCC3)n21 [Compound 224, 7-Amino-1-azepan-1-yl-4-benzyl-4H-[1,2,4]triazolo[4,3-a]quinazolin-5-one]",75 nM,240 °C (dec.)
"O=c1c2cc(Br)ccc2n2c(N3CCCCCC3)nnc2n1Cc1ccc(Cl)cc1 [Compound 32, 1-(azepan-1-yl)-7-bromo-4-(4-chloro-benzyl)-4H-[1,2,4]triazolo[4,3-a]quinazolin-5-one]",53 nM,179 °C
"O=C(Cc1ccc(Cn2c(=O)c3cc(Br)ccc3n3c(N4CCCC4)nnc23)cc1)NO [Compound 243, 2-[4-(7-Bromo-5-oxo-1-pyrrolidin-1-yl-5H-[1,2,4]triazolo[4,3-a]quinazolin-4-ylmethyl)-phenyl]-N-hydroxy-acetamide]",28 nM,229 °C
"O=c1c2cc(Br)ccc2n2c(N3CCCC3)nnc2n1Cc1ccc([N+](=O)[O-])cc1 [Compound 48, 7-Bromo-4-(4-nitro-benzyl)-1-pyrrolidin-1-yl-4H-[1,2,4]triazolo[4,3-a]quinazolin-5-one]",25 nM,200 °C
"O=c1c2cc(Br)ccc2n2c(N3CCCC3)nnc2n1Cc1ccc(F)cc1 [Compound 44, 7-Bromo-4-(4-fluoro-benzyl)-1-pyrrolidin-1-yl-4H-[1,2,4]triazolo[4,3-a]quinazolin-5-one]",90 nM,166 °C
"CN(C)c1nnc2n(CC#Cc3ccccc3)c(=O)c3cc(Br)ccc3n12 [Compound 89, 7-Bromo-1-dimethylamino-4-(3-phenyl-prop-2-ynyl)-4H-[1,2,4]triazolo[4,3-a]quinazolin-5-one]",27 nM,159 °C
"O=c1c2cc(Br)ccc2n2c(N3CCCC3)nnc2n1CC=Cc1cccnc1 [Compound 61, 7-Bromo-4-(3-pyridin-3-yl-allyl)-1-pyrrolidin-1-yl-4H-[1,2,4]triazolo[4,3-a]quinazolin-5-one]",11 nM,102 °C
"O=c1c2cc(Br)ccc2n2c(N3CCCC3)nnc2n1C/C=C/c1ccc(Cl)cc1 [Compound 59, 7-Bromo-4-[(E)-3-(4-chloro-phenyl)-allyl]-1-pyrrolidin-1-yl-4H-[1,2,4)triazolo[4,3-a]quinazolin-5-one]",90 nM,187 °C
"O=c1c2cc(Br)ccc2n2c(N3CCCC3)nnc2n1CC=Cc1ccccc1 [Compound 57, 1-(pyrrolidin-1-yl)-7-bromo-4-(3-phenylallyl)-4H-[1,2,4]triazolo[4,3-a]quinazolin-5-one]",14 nM,152 to 155 °C
"COc1ccc(Cn2c(=O)c3cc(Br)ccc3n3c(N4CCCCC4)nnc23)cc1OC [Compound 75, 7-Bromo-4-(3,4-dimethoxy-benzyl)-1-piperidin-1-yl-4H-[1,2,4]triazolo[4,3-a]quinazolin-5-one]",78 nM,178 °C
